US10202347B2, “Compound, production method therefor, and use of said compound” (MICROBIAL CHEMISTRY RESEARCH FOUNDATION, priority 2013, dated 2019)
Read-outs that look alike come from different tables or passages of the source.

Legend:
[1] = system: H. influenza ARD476 strain; assay: Measurement of MIC for H. influenza ARD476; type: cell-based; conditions: Haemophilus influenzae, ARD476STRAIN, read-out: MIC H. influenzae ARD476
Method: (§1) Each of the above compounds was measured for minimum inhibitory concentration (MIC) for Haemophilus influenza.
(§2) Haemophilus influenza T-196 strain and H. influenza ARD476 strain each were statically cultured in a HI medium (Muller Hinton medium (product of Becton, Dickinson Co.) supplemented with 5% Fildes enrichment (product of Becton, Dickinson Co.)) at 37° C. overnight under aerobic conditions containing 5% carbon dioxide gas.
(§3) After completion of the culturing, the culture was suspended with the HI medium and diluted so that each Haemophilus influenza strain was 2×10^6 CFU/mL to 9×10^6 CFU/mL.
(§4) Each of the test samples (each of the above compounds, clarithromycin, and ampicillin) was prepared with the HI medium to have a concentration of 256 mg/L. From this concentration, the test sample was 2-fold diluted serially in 11 steps to 0.125 mg/L.
(§5) The above-diluted culture was added at 50 μL/well to 50 μL/well of the HI medium containing each of the test samples at the above concentrations, and was statically cultured for 18 hours at 37° C. under aerobic conditions containing 5% carbon dioxide gas.
(§6) After completion of the culturing, the presence or absence of proliferation of each bacterium was visually determined based on turbidity, and the MIC for each bacterial strain was obtained.

[2] = system: Haemophilus influenza T-196 strain; assay: Measurement of MIC for Haemophilus influenza T-196; type: cell-based; conditions: read-out: MIC Haemophilus influenzae T-196
Method: as §1, §2, §3, §4, §5, §6

[3] = system: H. pylori JCM12095 strain; assay: Measurement of MIC for H. pylori JCM12095; type: cell-based; conditions: Helicobacter pylori, read-out: MIC H. pylori JCM 12095
Method: Each of the above compounds was measured for minimum inhibitory concentration (MIC) for Helicobacter pylori.
Helicobacter pylori JCM12093 strain and H. pylori JCM12095 strain each were statically cultured in a HP medium (brain heart infusion broth (product of Becton, Dickinson Co.) supplemented with 10% fetal bovine serum (product of Life Technologies Co.)) for 144 hours at 37° C. under microaerobic culture conditions (microaerobic conditions (N2:O2:CO2=85:5:10)).
After completion of the culturing, the culture was suspended with the HP medium and diluted so that Helicobacter pylori was 2×10^6 CFU/mL to 9×10^6 CFU/mL.
Each of the test samples (each of the above compounds, clarithromycin, and ampicillin) was prepared with the HP medium to have a concentration of 256 mg/L. From this concentration, the test sample was 2-fold diluted serially in 15 steps to 0.0078 mg/L.
The above-diluted culture was added at 50 μL/well to 50 μL/well of the HP medium containing each of the test samples at the above concentrations, and was statically cultured for 144 hours at 37° C. under microaerobic culture conditions (microaerobic conditions (N2:O2:CO2=85:5:10)). After completion of the culturing, the presence or absence of proliferation of each bacterium was visually determined based on turbidity, and the MIC for each bacterial strain was obtained.

[4] = Acute toxicity test (maximum tolerated dose); conditions: female, ICR, mouse, in vivo, iv
Text: ICR mice (female, 4 weeks old, product of Charles River Co.) were bred under the SPF conditions.
One half of the administration dose at which the mice were recognized to be dead or have serious toxicity for the observation period of 2 weeks was defined as the maximum tolerated dose (MTD) in the present experiment.

[5] = system: human stomach cancer cells MKN-74; assay: Cell proliferation test, monoculture test (GFP fluorescence); type: cell-based
Method: (§7) Human stomach cancer cells MKN-74 (Riken Cell Bank) were cultured at 37° C. and 5% CO2 in DMEM supplemented with 10% FBS (product of GIBCO Co.), 100 units/mL penicillin G (product of Invitrogen Co.), and 100 μg/mL streptomycin (product of Invitrogen Co.).
(§8) The above cancer cells were allowed to undergo gene transfer of Green fluorescence protein (GFP) expression vector, pEGFP-C1 (product of BD Biosciences Co.) using the Lipofectamine reagent (product of Invitrogen Co.), to thereby clone cells stably expressing GFP.
(§9) Only DMEM containing 1% dialyzed serum, 5 μg/mL insulin, 5 μg/mL transferrine (product of Wako Pure Chemical Industries Co.), and 1.4 μM hydrocortisone (product of Sigma Co.) was placed in a 96-well plate at 0.1 mL/well, and respective evaluation samples (the compounds expressed by Structural Formulas (1) to (13)) were added thereto at respective concentrations, followed by maintaining at 37° C. and 5% CO2 for 2 days.
Next, the above human stomach cancer cells MKN-74 were dispersed in DMEM at 5×10^5 cells/mL, and were placed in the above plate at 10 μL/well, followed by further coculturing at 37° C. and 5% CO2 for 3 days.
(§10) Measurement of cell proliferation rates in the above coculture test and monoculture test was performed in the following manner.
(§11) The medium was removed from the wells of the above plate, and a cytolysis liquid (10 mM Tris-HCl [pH 7.4], 150 mM NaCl, 0.9 mM CaCl2, and 1% Triton X-100) was added thereto at 0.1 mL/well to lyse the cells. The fluorescence intensity of GFP was measured at an excitation wavelength of 485 nm and a fluorescence wavelength of 538 nm, and the cell proliferation rates were calculated from the following formula. Cell proliferation rate (%)=(Fluorescence intensity in the presence of the evaluation sample/Fluorescence intensity in the absence of the evaluation sample)×100

[6] = system: human stomach cancer cells MKN-74 cocultured with normal stromal cells derived from the human stomach, Hs738; assay: Cell proliferation test, coculture test with normal stromal cells Hs738 (GFP fluorescence); type: cell-based
Method: as §7, §8
Normal stromal cells derived from the human stomach, Hs738 ((CRL-7869), ATCC) were cultured at 37° C. and 5% CO2 in DMEM supplemented with 10% FBS, 100 units/mL penicillin G (product of Invitrogen Co.), 100 μg/mL streptomycin (product of Invitrogen Co.), 5 μg/mL insulin, 5 μg/mL transferrin (product of Wako Pure Chemical Industries Co.), 1.4 μM hydrocortisone (product of Sigma Co.), and […] basic-FGF (product of Pepro Tech Co.).
as §9, with “The above normal stromal cells derived from the human stomach, Hs738 were dispersed at 5×10^4 cells/mL in” for “Only”, “Co.), and were” for “Co.) was”, “mL/well. Respective” for “mL/well, and respective”, “culturing” for “maintaining”
Next, the above human stomach cancer cells MKN-74 were dispersed in DMEM at 5×10^5 cells/mL, and were placed at 10 μL/well in the plate in which the above normal stromal cells derived from the human stomach, Hs738 had been cultured, followed by further coculturing at 37° C. and 5% CO2 for 3 days.
as §10, §11

[7] = HI medium, 18 hours, 37° C., 5% carbon dioxide
[8] = JCM12095, HP medium, 144 hours, 37° C., microaerobic
[9] = monoculture test, MKN-74 alone, cell proliferation rate, average of duplicate, read-out: Mono IC50
[10] = coculture test, MKN-74 with stromal cells Hs738, cell proliferation rate, average of duplicate, read-out: Cocul IC50
[11] = intravenous administration, ICR mice, observed for 2 weeks, one half of the dose with death or serious toxicity, read-out: MTD

SMILES | MIC [1, 7] [µg/mL] | MIC [2, 7] [µg/mL] | MIC [3, 8] [µg/mL] | MTD at 2 weeks ([4]; MTD) [mg/kg] | IC50 [5, 9] [µg/mL] | IC50 [6, 10] [µg/mL] | MTD at 2 weeks [4, 11] [mg/kg] | MIC ([1]; 18 h) [µg/mL] | MIC ([2]; 18 h) [µg/mL] | MIC ([3]; JCM12095, 144 h) [µg/mL] | IC50 ([5]; MKN-74, read-out: Mono IC50) [µg/mL] | IC50 ([6]; MKN-74, read-out: Cocul IC50) [µg/mL]
CCCCCCCCc1nc2ccccc2c(OCC(=O)O)c1C [Structural Formula (2)] | 64 | 64 | 0.5 | ≥ 50 | 2.95 | 0.37 | – | – | – | – | – | –
Cc1c(CCCC/C=C/C(C)C)[nH]c2ccccc2c1=O [Structural Formula (3)] | > 128 | > 128 | 0.016 | – | > 100 | 0.012 | 1.56 | – | – | – | – | –
Cc1c(CC(C)C)[nH]c2ccccc2c1=O [Structural Formula (4)] | 128 | 64 | 0.25 | 25 | > 100 | 1.32 | – | – | – | – | – | –
CCCCCCCCc1c(C)c(=O)c2ccccc2n1CC(=O)OC [Structural Formula (5)] | > 128 | > 128 | 2 | 6.25 | > 100 | 0.53 | – | – | – | – | – | –
CCCCCCCCc1c(C)c(=O)c2ccccc2n1CC(=O)O [Structural Formula (6)] | 128 | 128 | 0.25 | ≥ 50 | 71 | 4.15 | – | – | – | – | – | –
CCCCCCCc1c(C)c(=O)c2ccccc2n1CN=C=S [Structural Formula (11)] | – | – | 0.016 | – | 89.5 | 0.12 | 6.25 | > 128 | > 128 | – | – | –
CCCCCCCc1c(C)c(=O)c2ccccc2n1CNC(=S)SC [Structural Formula (12)] | > 128 | > 128 | – | – | – | – | ≥ 50 | – | – | 0.06 | 39.5 | 2.91
CCCCCCCc1c(C)c(=O)c2ccccc2n1CN=C(SC)SC [Structural Formula (13)] | > 128 | > 128 | – | – | – | – | ≥ 50 | – | – | 2 | 1.36 | 0.78
